Experiment [1] concerns primary human ileal crypt cultures. Description: GLP-1 secretion in human ileal crypt cultures. Conditions: 30 μM. In kind it is cell-based. The protocol:
The potential for the combination of a compound of Formula (A) and a compound of Formula (B) to induce gut hormone secretion from EECs was assessed using primary human ileal crypt cultures and compared to the effect of the individual agents.

Experiment [2] deals with T1, human GPR40 (Homo sapiens, UniProt O14842).
T1 construct: host or cells: CHO-K1
T1 sequence (O14842 whole entry): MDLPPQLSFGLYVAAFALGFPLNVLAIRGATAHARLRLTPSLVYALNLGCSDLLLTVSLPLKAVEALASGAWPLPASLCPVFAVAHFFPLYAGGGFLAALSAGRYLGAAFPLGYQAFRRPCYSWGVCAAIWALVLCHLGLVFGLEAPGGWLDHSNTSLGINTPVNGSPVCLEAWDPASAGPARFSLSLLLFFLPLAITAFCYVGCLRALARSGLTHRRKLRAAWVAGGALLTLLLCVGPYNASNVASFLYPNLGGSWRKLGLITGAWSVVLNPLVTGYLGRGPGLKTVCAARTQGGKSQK
Description: Inositol phosphate (IP1) accumulation assay, CHO-K1 cells expressing human GPR40. In kind it is cell-based. The settings on record: CHO hFFAR1 cells, IP1 HTRF, 90 min. As for the experimental part: CHO-K1 cells expressing human GPR40 were purchased from DiscoverX (95-1005C2). HEK293 cells expressing mouse FFAR1 were prepared using a mouse FFAR1 carrying plasmid purchased from OriGene Technologies (MR222997). The cells were transfected using Lipofectamine 2000 using manufacturer instructions and stable cell line was established from a single cell using geneticine selection. Assay ready frozen (ARF) cells were prepared and used throughout the study.
The assay was performed in a 384-well plate format using IP1 assay kit from Cis-Bio. ARF cells expressing FFAR1 (mouse and human) were thawed, washed and then plated in the appropriate medium (F12 based medium for CHO hFFAR1 and DMEM based medium for HEK293 mFFAR1—both were supplemented with 10% FBS and penicillin/streptomycin). 20 μL of 3.5×10^5 cells/mL were plated on a Poly D-Lysine coated 384-well white plate. The cells were then incubated for 16 hr at 37° C./5% CO2. After 16 hr the medium was removed and 15 μL of stimulation buffer containing the test compounds was added to the cells. The plates were then incubated for 90 min at 37° C./5% CO2. […]
[…] was measured using ClarioSTAR plate reader, calculating the ratio between emissions at 665 nm and 620 nm (HTRF ratio). […] EC50 and Max activity values were determined using a standard 4-parameter fit.
Background: Time-resolved FRET reads energy transfer from a long-lived donor to a nearby acceptor.

For experiment [3], the system named is diet-induced-obese (DIO) mice. Briefly: 14-day weight loss in DIO mice. In kind it is in vivo. Conditions: BID, 13 or 14 days. As for the experimental part: The effects of a GPR40 Agonist of Formula (B) alone and in combination with a GPR119 Agonist of Formula (A) on body weight were assessed in diet-induced-obese (DIO) mice over 14 days.
Male C57BL/6J DIO mice, approximately 16 weeks old (Jackson Laboratories), were provided 60% high fat diet and water ad libitum. Animals were dosed BID (two times a day) with vehicle for an approximately 3-week until body weight had stabilized. At approximately 20 weeks of age, the mice were randomized into treatment groups (n=8/group) by body weight (range of 37 to 55 g) as well as food intake, and body weight change measured over a two-day baseline period. In order to maximize time on target throughout the day, compounds were administered BID, 8 h apart. Food intake and body weight were measured daily.

Experiment [4] has as its system male C57BL/6J mice. Briefly: Gut hormone (GLP-1) secretion in mice, plasma GLP-1 after oral gavage. In kind it is in vivo. Conditions: 30 mg/kg of each compound. The protocol:
To determine whether activating two receptors simultaneously results in increased effects on hormone release, representative GPR40 agonists of Formula (B) were tested in combination with a GPR119 agonist of Formula (A). GLP-1 was measured at 5 and 17 h post dose. For the dose titration study, male C57BL/6J mice were acclimated to the facility and the dosing procedure. Mice were weighed and then fasted for 4 h. The mice were administered vehicle, a GPR40 agonist of Formula (B) at 30 mg/kg, a GPR119 agonist of Formula (A) at 30 mg/kg, and the GPR40 agonist of Formula (B) at 0.3, 1, 3, 10, and 30 mg/kg doses in combination with the GPR119 agonist of Formula (A) at 30 mg/kg by oral gavage. Blood was collected at 5 h post-dose or 17 h post-dose, and plasma was assayed for GLP-1.

Experiment [5] relates to male C57BL/6J mice. Briefly: Glucose excursion during oral glucose tolerance test in mice. In kind it is in vivo. The settings on record: for % Reduction in 2-h glucose AUC vs. vehicle: OGTT, AUC 0 to 120 min, B6, B1, A14 30 mg/kg, linagliptin 0.3 mg/kg, metformin 300 mg/kg, dosed 1 h before glucose. The protocol:
The effects of GPR40 agonists of Formula (B) and a GPR119 agonist of Formula (A) alone and in combination on glucose excursion during an oral glucose tolerance test were assessed in mice. The effects of the combination of a compound of Formula (A) and compounds of Formula (B) with linagliptin (a DPP-4 inhibitor) or metformin were also assessed. Male C57BL/6J mice, approximately 10 weeks old, were acclimated to the facility and the oral dosing procedure. Mice were randomized into balanced treatment groups using body weight. Baseline glucose was assessed immediately before compound administration. […] Blood was assessed for glucose levels 20 min, 40 min, 60 min, and 120 min post D-(+)-glucose administration. The AUCs for blood glucose measures were calculated for each treatment from 0 to 120 min. Statistical analysis was performed on AUCs using one-way ANOVA versus vehicle, with Tukey's post-test.

In experiment [6] the target is T2, human GPR119 (hGPR119) (Homo sapiens, UniProt Q8TDV5).
T2 construct: expressed in transfected cells
T2 sequence (Q8TDV5 1-335): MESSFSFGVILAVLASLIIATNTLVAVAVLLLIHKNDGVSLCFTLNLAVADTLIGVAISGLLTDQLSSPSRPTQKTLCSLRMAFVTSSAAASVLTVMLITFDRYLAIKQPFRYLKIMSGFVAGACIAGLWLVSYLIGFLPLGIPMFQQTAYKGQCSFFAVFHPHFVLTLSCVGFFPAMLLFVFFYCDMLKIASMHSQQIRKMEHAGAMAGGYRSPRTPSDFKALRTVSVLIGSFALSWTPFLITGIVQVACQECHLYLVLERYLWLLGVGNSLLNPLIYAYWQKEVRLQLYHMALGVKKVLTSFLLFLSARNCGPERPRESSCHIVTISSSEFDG
Description: cAMP accumulation assay, CHO-K1 cells stably expressing human GPR119. In kind it is cell-based. Conditions: cAMP HTRF, 60 minutes. The protocol:
CHO-K1 cells stably expressing human GPR119 (hGPR119) were prepared by transfection of a GPR119-carrying plasmid using Lipofectamine 2000 (following manufacturer instructions). A stable cell line was established using the limiting dilution method with geneticine selection. Assay-ready frozen (ARF) cells were prepared and used throughout the study.
The assay was performed in a 384-well plate format using the cAMP Gs dynamic assay kit from Cisbio. ARF cells expressing hGPR119 were thawed, washed and then resuspended in cAMP stimulation buffer at a cell density of 1.1×10^6 cells/mL. Cells were plated at a density of ˜10,000 cells/well (9 μL/well). Dose response curves for the tested compounds were prepared in a cAMP stimulation buffer, containing 0.1% Tween 80 at 4 fold the final concentration. The compounds were then transferred to the cell plates using BRAVO (3 μL/well) and the plates were incubated for 60 minutes at 37° C./5% CO2. Detection buffer (10 μL, prepared as described in the cAMP Gs dynamic kit) were added to each well, and the plates were incubated at ambient temperature for 1 hr.
RT-FRET was measured using a ClarioSTAR plate reader, calculating the ratio between emissions at 665 nm and 620 nm (HTRF ratio). The HTRF ratio for positive (Max) and negative (Min) controls were used to normalize HTRF data and generate values for % activity. EC50 and Max activity values were determined using a standard 4-parameter fit.
A general note: cAMP levels reflect the balance of adenylyl cyclase and phosphodiesterase activity.

Where a name gives a salt, the structure may show the parent alone. Some results are limits rather than exact numbers.

Data on ten compounds can be found in patent US20240115587A1, “COMBINATION THERAPIES” (Kallyope, Inc., priority 2022, published 2024).

Consider `COc1ccc(F)c([C@H]2CC[C@H](COc3cccc([C@H](C[P@](C)(=O)O)C4CC4)c3)CC2)c1` (single isomer, unassigned) [Compound B1], for which the figures for the “GLP-1 (fold increase)” value in experiment [1], in experiment [4] (5 h post dose) and in experiment [4] (17 h post dose) were 5.5 fold increase, 1.9 fold increase and 1.4 fold increase, respectively. Moreover, the EC50 (usually the concentration needed to bring the measured effect to its halfway point) in experiment [2] is ≤ 50 nM. Also, the “% Weight Loss vs Vehicle” value in experiment [3] (Study 1, DIO mice) was found to be 3.1%. Further, the “% Reduction in 2-h glucose AUC vs. vehicle” value (“% Reduction” below) in experiment [5] is listed as 14%.
For `COc1ccc(F)c([C@H]2CC[C@H](COc3cccc([C@@H](C[P@@](C)(=O)O)C4CC4)c3)CC2)c1` (single isomer, unassigned) [Compound B2], the EC50 in experiment [2] lay in the range of 50 to 250 nM.
Consider `CCCc1cnc(N2CCC(CCCOc3cc(F)c(CC(=O)N4CC(C(=O)NCCC[N+](C)(C)C)C4)c(F)c3)CC2)nc1` [Compound A13, 3-[[1-[2-[2,6-difluoro-4-[3-[1-(5-propylpyrimidin-2-yl)-4-piperidyl]propoxy]phenyl]acetyl]azetidine-3-carbonyl|amino]propyl-trimethyl-ammonium formate], for which, in experiment [6], the EC50 is 100 to 1000 nM.
For `O=C(Cc1ccc(OCCCC2CCN(c3ncc(Cl)cn3)CC2)cc1F)N1CC(CNC[C@H](O)[C@@H](O)[C@H](O)[C@H](O)CO)C1` [Compound A14, 2-[4-[3-[1-(5-chloropyrimidin-2-yl)-4-piperidyl]propoxy]-2-fluoro-phenyl]-1-[3-[[[(2S,3R,4R,5R)-2,3,4,5,6-pentahydroxyhexyl]amino]methyl]azetidin-1-yl]ethanone], the “GLP-1 (fold increase)” value is 1.9 fold increase in experiment [1], 1.6 fold increase in experiment [4] (5 h post dose) and 1.3 fold increase in experiment [4] (17 h post dose). Besides, the “% Weight Loss vs Vehicle” value in experiment [3] (Study 1, DIO mice) worked out at 2.5%. The “% Reduction” value in experiment [5] was 14%.
Turning to `CCc1cnc(N2CCC(CCCOc3ccc(CC(=O)N4CC(CNC[C@H](O)[C@H](O)[C@@H](O)[C@H](O)C(=O)O)C4)c(F)c3)CC2)nc1` [Compound A36, (2S,3R,4S,5S)-6-[[1-[2-[4-[3-[1-(5-ethylpyrimidin-2-yl)-4-piperidyl]propoxy]-2-fluoro-phenyl]acetyl]azetidin-3-yl]methylamino]-2,3,4,5-tetrahydroxy-hexanoic acid], the EC50 in experiment [6] was ≤ 100 nM.
In experiment [6], `COCc1cnc(N2CCC(CCCOc3ccc(CC(=O)N4CC(CNCCNC(=O)NC(CO)(CO)CO)C4)c(F)c3)CC2)nc1` [Compound A51] had a 50% effective concentration (EC50) of 100 to 1000 nM.
In experiment [6], `O=C(NCCCCS(=O)(=O)O)C1CN(C(=O)Cc2ccc(OCCCC3CCN(c4ncc(Cl)cn4)CC3)cc2F)C1` [Compound A65, 4-[[1-[2-[4-[3-[1-(5-chloropyrimidin-2-yl)-4-piperidyl]propoxy]-2-fluoro-phenyl]acetyl]azetidine-3-carbonyl]amino]butane-1-sulfonic acid] had an EC50 of 100 to 1000 nM.
With `COc1ccc(CCCC(C)(C)C)c(N2CCC(COc3cccc([C@@H](CP(C)(=O)O)C4CC4)c3)CC2)c1` [Compound B6, ((S)-2-cyclopropyl-2-(3-((1-(2-(4,4-dimethylpentyl)-5-methoxyphenyl)piperidin-4-yl)methoxy)phenyl)ethyl)(methyl)phosphinic acid], the results for the “GLP-1 (fold increase)” value in experiment [1], in experiment [4] (5 h post dose) and in experiment [4] (17 h post dose) were 4.0 fold increase, 3.2 fold increase and 1.9 fold increase, respectively. Also, the “% Weight Loss vs Vehicle” value in experiment [3] (Study 2, DIO mice) is reported as 5.2%. Moreover, the “% Reduction” value in experiment [5] worked out at 21%.
Take `CC#CCn1c(N2CCC[C@@H](N)C2)nc2c1c(=O)n(Cc1nc(C)c3ccccc3n1)c(=O)n2C` [linagliptin, reference compound]: the “% Reduction” value in experiment [5] was 17%.
Turning to `CN(C)C(=N)N=C(N)N` [metformin, reference compound], the post-prandial glucose excursion result in experiment [5] (OGTT in mice) is “suppressed post-prandial glucose excursion”. Further, the “% Reduction” value in experiment [5] came out at 26%.
